Experimental data from patent US5300491A, “Treatment of protozoal infection” (priority 1992, dated 1994).
In brackets after ≈: the same amount, converted by molar mass. Several values for one entry are separate records, joined by “and”; a condition that tells them apart may be missing. Equal entries are not always repeated. Bridge positions count the residues as written; N and C are the ends. Square brackets hold non-standard residues; d marks the D form. Peptide text beside a SMILES is read from it. * marks the point of attachment. Ileψ(thiazoline)Cys = CC[C@H](C)[C@H](N)C1=N[C@H](C(=O)*)CS1; dOrn = NCCC[C@@H](N)C(=O)O

Assays:
[1] = system: intestinal amoebic infections; conditions: cited from earlier work
Micrococcus uteus = conditions: as obtained from Apothekernes Laboratorium A.S; cited from earlier work
Giardia lamblia = assay type: cell-based
Protocol: A Portland isolate of G. lamblia was treated with bacitracin and zinc bacitracin according to the procedure of Example IV. An Oxoid HP 11 anaerobic gas chamber and BR 38 gas generating kit were used to produce an anaerobic environment. […] The parasites were incubated in the presence of the treating reagent for 2 4 hours. The viability of the parasites was based on morphology and motility.

Tritrichomonas foetus = Tritrichomonas foetus assay (MLC); assay type: cell-based
Protocol: Duplicate plates of each isolate were prepared. One set of plates was exposed to an aerobic environment; and, the second set was exposed to an anaerobic environment. An Oxoid HP 11 anaerobic gas chamber and BR 38 gas generating kit were used to produce the anaerobic environment. […]

Trichomonas vaginalis = Trichomonas vaginalis assay (MLC, aerobic and anaerobic); assay type: cell-based
Protocol: All isolates were treated with either bacitracin or zinc bacitracin.
Prior to being diluted with the medium, the bacitracins were initially solubilized in water to 250 mg/ml. The zinc salt was solubilized in acidified water (60 μl HC1/ml). Duplicate plates of each isolate were prepared. one set of plates was exposed to an aerobic environment; and, the second set was exposed to an anaerobic environment. An Oxoid HP 11 anaerobic gas chamber and BR 38 gas generating kit were used to produce the anaerobic environment.

[2] = Portland isolate, anaerobic, 24 hours, two lines of values

SMILES: CC[C@H](C)[C@H](N)C1=N[C@H](C(=O)N[C@@H](CC(C)C)C(=O)N[C@H](CCC(=O)O)C(=O)N[C@H](C(=O)N[C@H]2CCCCNC(=O)[C@H](CC(N)=O)NC(=O)[C@@H](CC(=O)O)NC(=O)[C@H](Cc3cnc[nH]3)NC(=O)[C@@H](Cc3ccccc3)NC(=O)[C@H]([C@@H](C)CC)NC(=O)[C@@H](CCCN)NC2=O)[C@@H](C)CC)CS1 [Bacitracin, reference compound] ({Ileψ(thiazoline)Cys}-L[dE]IK[dOrn]I[dF]H[dD]N; lactam 4-C)
- parasitological cure ([1]; 51 patients, 10-20 days, 40,000 to 160,000 units): 66%
- cure rate ([1]; 100,000 I.U. daily over ten days): < 100%
- Potency of the material used (Micrococcus uteus): 70 I.U./mg
- MICs (Giardia lamblia): 28.6 to 35.7 mg/mL
- MLC (first of the two columns per drug) (Giardia lamblia; [2]): 2500 IU/ml and 2000 IU/ml
- MLC (second of the two columns per drug) (Giardia lamblia; [2]): > 3500 IU/ml
- MLC (Tritrichomonas foetus; isolate 121, aerobic): 28 mg/mL (≈ 19.7 mM)
- MLC (Tritrichomonas foetus; isolate 121, anaerobic): 28 mg/mL (≈ 19.7 mM)
- MLC (Tritrichomonas foetus; isolate 138, aerobic): 28 mg/mL (≈ 19.7 mM)
- MLC (Tritrichomonas foetus; isolate 138, anaerobic): 28 mg/mL (≈ 19.7 mM)
- MLC (Tritrichomonas foetus; isolate ATCC 30166, aerobic): 28 mg/mL (≈ 19.7 mM)
- MLC (Tritrichomonas foetus; isolate ATCC 30166, anaerobic): 28 mg/mL (≈ 19.7 mM)
- MLC (Tritrichomonas foetus; isolate FT.3741, aerobic): 28 mg/mL (≈ 19.7 mM)
- MLC (Tritrichomonas foetus; isolate FT.3741, anaerobic): 28 mg/mL (≈ 19.7 mM)
- MLC (Tritrichomonas foetus; isolate S10, aerobic): 28 mg/mL (≈ 19.7 mM)
- MLC (Tritrichomonas foetus; isolate S10, anaerobic): 28 mg/mL (≈ 19.7 mM)
- MLC (Tritrichomonas foetus; isolate TF.7, aerobic): 28 mg/mL (≈ 19.7 mM)
- MLC (Tritrichomonas foetus; isolate TF.7, anaerobic): 28 mg/mL (≈ 19.7 mM)
- MLC (Trichomonas vaginalis; isolate 1031, metronidazole-sensitive, aerobic): 2000 IU/ml
- MLC (Trichomonas vaginalis; isolate 1031, metronidazole-sensitive, anaerobic): 2000 IU/ml
- MLC (Trichomonas vaginalis; isolate 1043, metronidazole-sensitive, aerobic): 2500 IU/ml
- MLC (Trichomonas vaginalis; isolate 1043, metronidazole-sensitive, anaerobic): 2000 IU/ml
- MLC (Trichomonas vaginalis; isolate 1044, metronidazole-sensitive, aerobic): 2000 IU/ml
- MLC (Trichomonas vaginalis; isolate 1044, metronidazole-sensitive, anaerobic): 2000 IU/ml
- MLC (Trichomonas vaginalis; isolate 1064, metronidazole-sensitive, aerobic): 1500 IU/ml
- MLC (Trichomonas vaginalis; isolate 1064, metronidazole-sensitive, anaerobic): 1500 IU/ml
- MLC (Trichomonas vaginalis; isolate 1065, metronidazole-sensitive, aerobic): 2000 IU/ml
- MLC (Trichomonas vaginalis; isolate 1065, metronidazole-sensitive, anaerobic): 2000 IU/ml
- MLC (Trichomonas vaginalis; isolate 1165, metronidazole-sensitive, aerobic): 2000 IU/ml
- MLC (Trichomonas vaginalis; isolate 1165, metronidazole-sensitive, anaerobic): 2000 IU/ml
- MLC (Trichomonas vaginalis; isolate 1910, metronidazole-sensitive, aerobic): 2000 IU/ml
- MLC (Trichomonas vaginalis; isolate 1910, metronidazole-sensitive, anaerobic): 2000 IU/ml
- MLC (Trichomonas vaginalis; isolate 6950, metronidazole-sensitive, aerobic): 2000 IU/ml
- MLC (Trichomonas vaginalis; isolate 6950, metronidazole-sensitive, anaerobic): 2000 IU/ml
- MLC (Trichomonas vaginalis; isolate 89532.2, metronidazole-insensitive, aerobic): 2000 IU/ml
- MLC (Trichomonas vaginalis; isolate 89532.2, metronidazole-insensitive, anaerobic): 2000 IU/ml
- MLC (Trichomonas vaginalis; isolate 90576, metronidazole-insensitive, aerobic): 2500 IU/ml
- MLC (Trichomonas vaginalis; isolate 90576, metronidazole-insensitive, anaerobic): 2000 IU/ml
- MLC (Trichomonas vaginalis; isolate CDC85, metronidazole-insensitive, aerobic): 1500 IU/ml
- MLC (Trichomonas vaginalis; isolate CDC85, metronidazole-insensitive, anaerobic): 2000 IU/ml
- MLC (Trichomonas vaginalis; isolate IR78, metronidazole-insensitive, aerobic): 2000 IU/ml
- MLC (Trichomonas vaginalis; isolate IR78, metronidazole-insensitive, anaerobic): 2000 IU/ml
- MLC (Trichomonas vaginalis; isolate PHLS289, metronidazole-insensitive, aerobic): 2000 IU/ml
- MLC (Trichomonas vaginalis; isolate PHLS289, metronidazole-insensitive, anaerobic): 2500 IU/ml
- MLC (Trichomonas vaginalis; isolate STH-1, metronidazole-insensitive, aerobic): 2000 IU/ml
- MLC (Trichomonas vaginalis; isolate STH-1, metronidazole-insensitive, anaerobic): 2000 IU/ml
- MLC (Trichomonas vaginalis; isolate UCH-1, metronidazole-sensitive, aerobic): 2000 IU/ml
- MLC (Trichomonas vaginalis; isolate UCH-1, metronidazole-sensitive, anaerobic): 2000 IU/ml
- MLC (Trichomonas vaginalis; isolate UCH-2, metronidazole-sensitive, aerobic): 2500 IU/ml
- MLC (Trichomonas vaginalis; isolate UCH-2, metronidazole-sensitive, anaerobic): 2500 IU/ml
- MLC (Trichomonas vaginalis; isolate UCH-M1, metronidazole-sensitive, aerobic): 2000 IU/ml
- MLC (Trichomonas vaginalis; isolate UCH-M1, metronidazole-sensitive, anaerobic): 2000 IU/ml
- MLC (Trichomonas vaginalis; isolate UOB-1, metronidazole-sensitive, aerobic): 2000 IU/ml
- MLC (Trichomonas vaginalis; isolate UOB-1, metronidazole-sensitive, anaerobic): 2000 IU/ml
- MLCs (Trichomonas vaginalis; span over metronidazole-sensitive isolates, converted from IU/ml): 21.44-35.71 mg/mi
